According to patent US6355785B1, “Guanosine-rich oligonucleotide integrase inhibitors” (Aronex Pharmaceuticals, Inc., priority 1993, dated 2002):
Like-named read-outs stand apart in the source and are kept apart here.

How the values were obtained:
[1] = test system: HIV-1 strains (SKI, RF, DV, IIIB, ADP/141); experiment: microbe, parasite or virus in culture; type: cell-based; conditions: Human immunodeficiency virus 1, IIIB

SMILES: Cc1cn([C@H]2C[C@H](N=[N+]=[N-])[C@@H](CO)O2)c(=O)[nH]c1=O [AZT, 3′-azido-3′-deoxythymidine]
- IC50 ([1]; CEM-SS, read-out: Antiviral Assay IC50 IIIB, HIV-1 IIIB, CEM-SS or MT4): 2 nM
- IC50 ([1]; CEM-SS, read-out: Antiviral Assay IC50 RF, HIV-1 RF, CEM-SS or MT4): 7 nM
- IC50 ([1]; CEM-SS, read-out: Antiviral Assay IC50 SKI, HIV-1 SKI, CEM-SS or MT4): 22 nM
- IC50 ([1]; CEM-SS, read-out: IC50 (cpe assay), RF (CEM-SS), MOI 0.01): 10 nM
- IC50 ([1]; CEM-SS, read-out: IC50 (cpe assay), RF (CEM-SS), MOI 0.02): 20 nM
- IC50 ([1]; CEM-SS, read-out: IC50 (cpe assay), RF (CEM-SS), MOI 0.04): 70 nM
- IC50 ([1]; CEM-SS, read-out: IC50 (cpe assay), RF (CEM-SS), MOI 0.64): > 10000 nM
- IC50 ([1]; CEM-SS, read-out: IC50 (cpe assay), RF (CEM-SS), MOI 1.28): > 10000 nM
- IC50 ([1]; CEM-SS, read-out: IC50 virus production, HIV-1 IIIB, CEM-SS): 2 ± 0.3 nM
- IC50 ([1]; CEM-SS, read-out: IC50 virus production, HIV-1 RF, CEM-SS, MOI 0.01): 7 nM
- IC50 ([1]; CEM-SS, read-out: IC50 virus production, HIV-1 SKI, CEM-SS, MOI 0.01): 22 ± 0.1 nM
- IC90 ([1]; CEM-SS, read-out: IC90 (cpe assay), RF (CEM-SS), MOI 0.16): > 10000 nM
- IC90 ([1]; CEM-SS, read-out: IC90 (cpe assay), RF (CEM-SS), MOI 0.32): > 10000 nM
- IC90 ([1]; CEM-SS, read-out: IC90 (cpe assay), RF (CEM-SS), MOI 0.64): > 10000 nM
- IC90 ([1]; CEM-SS, read-out: IC90 (cpe assay), RF (CEM-SS), MOI 1.28): > 10000 nM
- IC50 ([1]; SUP-T1, read-out: IC50 virus production, HIV-1 DV, SUP T1): 30 ± 5 nM
- IC50 ([1]; SUP-T1, read-out: IC50 virus production, HIV-1 IIIB, SUP T1): 30 ± 6 nM
- IC50 ([1]; read-out: IC50 (cpe assay)): 37 nM
- IC50 ([1]; read-out: IC50 (cpe assay), IIIB (MT4), MOI 0.01): 10 nM
- IC50 ([1]; read-out: IC50 virus production, HIV-1 IIIB, AA5): < 3 nM
- IC50 ([1]; read-out: IC50 virus production, HIV-1 IIIB, MT2): 10 ± 4 nM
- IC50 ([1]; read-out: IC50 virus production, HIV-1 RF, MT2): 30 ± 5 nM
- IC90 ([1]; read-out: IC90 (cpe assay), IIIB (MT4), MOI 0.3): 3300 nM
- % CD4 (HIV-1 infected PBMCs; IIIB, drug 0.1 μM, day 7): 31%
- % CD8 (HIV-1 infected PBMCs; IIIB, drug 0.1 μM, day 7): 79%
- % CD4 (HIV-1 infected PBMCs; IIIB, drug 1.0 μM): 30%
- % CD8 (HIV-1 infected PBMCs; IIIB, drug 1.0 μM): 81%
- % CD4 (HIV-1 infected PBMCs; IIIB, drug 5.0 μM): 27%
- % CD8 (HIV-1 infected PBMCs; IIIB, drug 5.0 μM): 86%
- % CD4 (HIV-1 infected PBMCs; MN, drug 0.1 μM): 25%
- % CD8 (HIV-1 infected PBMCs; MN, drug 0.1 μM): 82%
- % CD4 (HIV-1 infected PBMCs; MN, drug 1.0 μM): 35%
- % CD8 (HIV-1 infected PBMCs; MN, drug 1.0 μM): 79%
- % CD4 (HIV-1 infected PBMCs; MN, drug 5.0 μM): 36%
- % CD8 (HIV-1 infected PBMCs; MN, drug 5.0 μM): 78%
- % CD4 (HIV-1 infected PBMCs; N. Amer. #1, drug 0.1 μM): 25%
- % CD8 (HIV-1 infected PBMCs; N. Amer. #1, drug 0.1 μM): 83%
- % CD4 (HIV-1 infected PBMCs; N. Amer. #1, drug 1.0 μM): 25%
- % CD8 (HIV-1 infected PBMCs; N. Amer. #1, drug 1.0 μM): 84%
- % CD4 (HIV-1 infected PBMCs; N. Amer. #1, drug 5.0 μM): 26%
- % CD8 (HIV-1 infected PBMCs; N. Amer. #1, drug 5.0 μM): 85%
- % CD4 (HIV-1 infected PBMCs; N. Amer. #2, drug 0.1 μM): 6%
- % CD8 (HIV-1 infected PBMCs; N. Amer. #2, drug 0.1 μM): 95%
- % CD4 (HIV-1 infected PBMCs; N. Amer. #2, drug 1.0 μM): 13%
- % CD8 (HIV-1 infected PBMCs; N. Amer. #2, drug 1.0 μM): 89%
- % CD4 (HIV-1 infected PBMCs; N. Amer. #2, drug 5.0 μM): 25%
- % CD8 (HIV-1 infected PBMCs; N. Amer. #2, drug 5.0 μM): 85%
- % CD4 (HIV-1 infected PBMCs; RF, drug 0.1 μM): 23%
- % CD8 (HIV-1 infected PBMCs; RF, drug 0.1 μM): 84%
- % CD4 (HIV-1 infected PBMCs; RF, drug 1.0 μM): 32%
- % CD8 (HIV-1 infected PBMCs; RF, drug 1.0 μM): 76%
- % CD4 (HIV-1 infected PBMCs; RF, drug 5.0 μM): 34%
- % CD8 (HIV-1 infected PBMCs; RF, drug 5.0 μM): 81%
- % CD4 (HIV-1 infected PBMCs; SE Asia isolate, drug 0.1 μM): 29%
- % CD8 (HIV-1 infected PBMCs; SE Asia isolate, drug 0.1 μM): 82%
- % CD4 (HIV-1 infected PBMCs; SE Asia isolate, drug 1.0 μM): 31%
- % CD8 (HIV-1 infected PBMCs; SE Asia isolate, drug 1.0 μM): 82%
- % CD4 (HIV-1 infected PBMCs; SE Asia isolate, drug 5.0 μM): 29%
- % CD8 (HIV-1 infected PBMCs; SE Asia isolate, drug 5.0 μM): 86%
